Where two headings read alike, the source gives them in different places.
System: peptide sequence VCDWWGWGIC (mimic of the binding of drugs by the drug efflux protein P-glycoprotein)
Assay: Quenching of the natural tryptophan fluorescence of peptide […] on drug binding (FIG. 7h titration)
Details: for relative intensity of the peak at 359.25 nm, indicating the degree of quenching: peptide 49.1 μM, 0.1 M Tris pH 7.5
From the text: The system illustrated in FIG. 7 may be a drug binding to a protein or peptide comprising fluorescent amino acids at the site of binding.
The number in brackets, following each titration, is the relative intensity of the peak at 359.25 nm, indicating the degree of quenching.

[1] = peptide VCDWWGWGIC, linear sequence or cyclised, result in words

Molecule: CN1C(=O)CN=C(c2ccccc2)c2cc(Cl)ccc21 [Diazepam]
- natural tryptophan fluorescence of the peptide quenched by the drug: quenched

Molecule: C[C@H]1O[C@@H](O[C@H]2[C@@H](O)C[C@H](O[C@H]3[C@@H](O)C[C@H](O[C@H]4CC[C@@]5(C)[C@H](CC[C@@H]6[C@@H]5C[C@@H](O)[C@]5(C)[C@@H](C7=CC(=O)OC7)CC[C@]65O)C4)O[C@@H]3C)O[C@@H]2C)C[C@H](O)[C@@H]1O [Digoxin]
- natural tryptophan fluorescence of the peptide quenched by the drug [1]: quenched

Molecule: COc1cccc2c1C(=O)c1c(O)c3c(c(O)c1C2=O)C[C@@](O)(C(=O)CO)C[C@@H]3O[C@H]1C[C@H](N)[C@H](O)[C@H](C)O1 [Doxorubicin]
- natural tryptophan fluorescence of the peptide quenched by the drug [1]: quenched
- relative intensity of the peak at 359.25 nm, indicating the degree of quenching (peptide:doxorubicin 1:0.1, 2.9 ml, without doxorubicin normalised at 999.99): 917.99
- relative intensity of the peak at 359.25 nm, indicating the degree of quenching (peptide:doxorubicin 1:0.2, without doxorubicin 999.99): 835.53
- relative intensity of the peak at 359.25 nm, indicating the degree of quenching (peptide:doxorubicin 1:0.3, without doxorubicin 999.99): 769.34
- relative intensity of the peak at 359.25 nm, indicating the degree of quenching (peptide:doxorubicin 1:0.4, without doxorubicin 999.99): 704.25
- relative intensity of the peak at 359.25 nm, indicating the degree of quenching (peptide:doxorubicin 1:0.5, without doxorubicin 999.99): 633.91
- relative intensity of the peak at 359.25 nm, indicating the degree of quenching (peptide:doxorubicin 1:0.6, without doxorubicin 999.99): 594.31
- relative intensity of the peak at 359.25 nm, indicating the degree of quenching (peptide:doxorubicin 1:0.7, without doxorubicin 999.99): 547.73
- relative intensity of the peak at 359.25 nm, indicating the degree of quenching (peptide:doxorubicin 1:0.8, without doxorubicin 999.99): 498.54
- relative intensity of the peak at 359.25 nm, indicating the degree of quenching (peptide:doxorubicin 1:0.9, without doxorubicin 999.99): 457.70
- relative intensity of the peak at 359.25 nm, indicating the degree of quenching (peptide:doxorubicin 1:1, without doxorubicin 999.99): 415.96
- relative intensity of the peak at 359.25 nm, indicating the degree of quenching (peptide:doxorubicin 1:1.1, without doxorubicin 999.99): 390.24

Molecule: CC[C@H]1OC(=O)[C@H](C)[C@@H](O[C@H]2C[C@@](C)(OC)[C@@H](O)[C@H](C)O2)[C@H](C)[C@@H](O[C@@H]2O[C@H](C)C[C@H](N(C)C)[C@H]2O)[C@](C)(O)C[C@@H](C)C(=O)[C@H](C)[C@@H](O)[C@]1(C)O [Erythromycin]
- natural tryptophan fluorescence of the peptide quenched by the drug [1]: quenched

Molecule: O=c1c(-c2ccc(O)cc2)coc2cc(O)cc(O)c12 [Genistein]
- natural tryptophan fluorescence of the peptide quenched by the drug (peptide […], linear sequence or cyclised, result in words): quenched

Molecule: N[C@@H](Cc1ccc(N(CCCl)CCCl)cc1)C(=O)O [Melphalan]
- natural tryptophan fluorescence of the peptide quenched by the drug [1]: quenched

Molecule: CO[C@@H]1[C@@H](OC(N)=O)[C@@H](O)[C@H](Oc2ccc3c(O)c(NC(=O)c4ccc(O)c(CC=C(C)C)c4)c(=O)oc3c2C)OC1(C)C [Novobiocin]
- natural tryptophan fluorescence of the peptide quenched by the drug [1]: quenched

Molecule: COC(=O)[C@H]1[C@H]2C[C@@H]3c4[nH]c5cc(OC)ccc5c4CCN3C[C@H]2C[C@@H](OC(=O)c2cc(OC)c(OC)c(OC)c2)[C@@H]1OC [Reserpine]
- natural tryptophan fluorescence of the peptide quenched by the drug [1]: quenched

Molecule: CC[C@]1(O)C[C@@H]2CN(CCc3c([nH]c4ccccc34)[C@@](C(=O)OC)(c3cc4c(cc3OC)N(C)[C@H]3[C@@](O)(C(=O)OC)[C@H](OC(C)=O)[C@]5(CC)C=CCN6CC[C@]43[C@@H]65)C2)C1 [Vinblastine]
- natural tryptophan fluorescence of the peptide quenched by the drug [1]: quenched

Molecule: Cyclosporin A
- natural tryptophan fluorescence of the peptide quenched by the drug [1]: quenched
